# In the NIST ThermoML archive (doi:10.1021/je100381g):
# ± gives the expanded uncertainty stated by the source.
# Conditions: Fluid (supercritical or subcritical phases)
structure (smiles),measurement,setting,value
N#N [nitrogen],mass density,"265 K, 967 kPa",12.355 ± 0.001 kg/m3
same,mass density,"265 K, 1937 kPa",24.865 ± 0.002 kg/m3
same,mass density,"265 K, 3929 kPa",50.84 ± 0.002 kg/m3
same,mass density,"265 K, 5996 kPa",77.972 ± 0.003 kg/m3
same,mass density,"265 K, 7985 kPa",104.063 ± 0.004 kg/m3
same,mass density,"265 K, 9835 kPa",128.039 ± 0.004 kg/m3
same,mass density,"265 K, 15014 kPa",192.346 ± 0.006 kg/m3
same,mass density,"265 K, 20022 kPa",248.359 ± 0.008 kg/m3
same,mass density,"265 K, 25019 kPa",297.183 ± 0.009 kg/m3
same,mass density,"265 K, 30006 kPa",339.165 ± 0.011 kg/m3
same,mass density,"265 K, 35119 kPa",376.198 ± 0.012 kg/m3
same,mass density,"265 K, 50041 kPa",459.104 ± 0.014 kg/m3
same,mass density,"265 K, 74887 kPa",549.76 ± 0.017 kg/m3
same,mass density,"265 K, 100559 kPa",613.291 ± 0.019 kg/m3
same,mass density,"293 K, 965 kPa",11.119 ± 0.001 kg/m3
same,mass density,"293 K, 1933 kPa",22.306 ± 0.002 kg/m3
same,mass density,"293 K, 3923 kPa",45.361 ± 0.002 kg/m3
same,mass density,"293 K, 5988 kPa",69.244 ± 0.003 kg/m3
same,mass density,"293 K, 7971 kPa",91.982 ± 0.003 kg/m3
same,mass density,"293 K, 9822 kPa",112.91 ± 0.004 kg/m3
same,mass density,"293 K, 14872 kPa",167.663 ± 0.006 kg/m3
same,mass density,"293 K, 19976 kPa",218.428 ± 0.007 kg/m3
same,mass density,"293 K, 24948 kPa",262.722 ± 0.008 kg/m3
same,mass density,"293 K, 29965 kPa",302.337 ± 0.01 kg/m3
same,mass density,"293 K, 34993 kPa",337.389 ± 0.011 kg/m3
same,mass density,"293 K, 39916 kPa",367.801 ± 0.011 kg/m3
same,mass density,"293 K, 50130 kPa",421 ± 0.013 kg/m3
same,mass density,"293 K, 74957 kPa",513.932 ± 0.016 kg/m3
same,mass density,"293 K, 99903 kPa",578.472 ± 0.018 kg/m3
same,mass density,"293 K, 125585 kPa",628.863 ± 0.019 kg/m3
same,mass density,"293 K, 150976 kPa",668.88 ± 0.02 kg/m3
same,mass density,"298.15 K, 10005 kPa",112.564 ± 0.004 kg/m3
same,mass density,"298.15 K, 30026 kPa",296.94 ± 0.009 kg/m3
same,mass density,"298.15 K, 49844 kPa",413.221 ± 0.013 kg/m3
same,mass density,"298.15 K, 74988 kPa",507.852 ± 0.016 kg/m3
same,mass density,"298.15 K, 100175 kPa",573.318 ± 0.018 kg/m3
same,mass density,"298.15 K, 124825 kPa",622.069 ± 0.019 kg/m3
same,mass density,"298.15 K, 151239 kPa",664.101 ± 0.02 kg/m3
same,mass density,"350 K, 2974 kPa",28.486 ± 0.002 kg/m3
same,mass density,"350 K, 4917 kPa",46.878 ± 0.002 kg/m3
same,mass density,"350 K, 5971 kPa",56.772 ± 0.002 kg/m3
same,mass density,"350 K, 7481 kPa",70.762 ± 0.003 kg/m3
same,mass density,"350 K, 9976 kPa",93.531 ± 0.003 kg/m3
same,mass density,"350 K, 13786 kPa",127.029 ± 0.004 kg/m3
same,mass density,"350 K, 17230 kPa",155.891 ± 0.005 kg/m3
same,mass density,"350 K, 20677 kPa",183.287 ± 0.006 kg/m3
same,mass density,"350 K, 24132 kPa",209.197 ± 0.007 kg/m3
same,mass density,"350 K, 27582 kPa",233.51 ± 0.008 kg/m3
same,mass density,"350 K, 29848 kPa",248.687 ± 0.008 kg/m3
same,mass density,"350 K, 34691 kPa",279.018 ± 0.009 kg/m3
same,mass density,"350 K, 49978 kPa",358.872 ± 0.011 kg/m3
same,mass density,"350 K, 74999 kPa",452.98 ± 0.014 kg/m3
same,mass density,"350 K, 99994 kPa",520.331 ± 0.016 kg/m3
same,mass density,"350 K, 124395 kPa",571.157 ± 0.018 kg/m3
same,mass density,"350 K, 150364 kPa",614.997 ± 0.019 kg/m3
same,mass density,"400 K, 1004 kPa",8.432 ± 0.001 kg/m3
same,mass density,"400 K, 1999 kPa",16.747 ± 0.002 kg/m3
same,mass density,"400 K, 2999 kPa",25.04 ± 0.002 kg/m3
same,mass density,"400 K, 4000 kPa",33.281 ± 0.002 kg/m3
same,mass density,"400 K, 5001 kPa",41.463 ± 0.002 kg/m3
same,mass density,"400 K, 7000 kPa",57.573 ± 0.002 kg/m3
same,mass density,"400 K, 8004 kPa",65.564 ± 0.003 kg/m3
same,mass density,"400 K, 10000 kPa",81.202 ± 0.003 kg/m3
same,mass density,"400 K, 14997 kPa",118.841 ± 0.004 kg/m3
same,mass density,"400 K, 19991 kPa",154.143 ± 0.005 kg/m3
same,mass density,"400 K, 24998 kPa",187.116 ± 0.006 kg/m3
same,mass density,"400 K, 29991 kPa",217.621 ± 0.007 kg/m3
same,mass density,"400 K, 35015 kPa",246.029 ± 0.008 kg/m3
same,mass density,"400 K, 40004 kPa",272.126 ± 0.009 kg/m3
same,mass density,"400 K, 49964 kPa",318.659 ± 0.01 kg/m3
same,mass density,"400 K, 59948 kPa",358.969 ± 0.011 kg/m3
same,mass density,"400 K, 69931 kPa",394.143 ± 0.012 kg/m3
same,mass density,"400 K, 79958 kPa",425.322 ± 0.013 kg/m3
same,mass density,"400 K, 89963 kPa",453.061 ± 0.014 kg/m3
same,mass density,"400 K, 99951 kPa",477.982 ± 0.015 kg/m3
same,mass density,"400 K, 110031 kPa",500.804 ± 0.015 kg/m3
same,mass density,"400 K, 120573 kPa",522.585 ± 0.016 kg/m3
